{"source": "patent US20220162215A1", "about": "“COMPOSITIONS AND METHODS OF USING THE SAME FOR TREATMENT OF NEURODEGENERATIVE AND MITOCHONDRIAL DISEASE” (MITOKININ, INC., priority 2019, published 2022)", "key": {"[1]": {"experiment": "Solubility in 1× PBS", "assay_type": "physicochemical"}, "[2]": {"experiment": "Tissue distribution, mouse", "assay_type": "in vivo", "procedure": "Referring to Tables 8A-C below, an in vivo summary of EP-0035985 IV at 1 mg/kg (8A), PO 10 mg/kg (8B), and a tissue distribution, mouse (8C) is shown below."}, "[3]": {"system": "α-synuclein", "experiment": "Preformed α-syn amyloid fibril (PFF) mouse model", "assay_type": "in vivo", "conditions": "oral dosing; for all analyzed species of α-synuclein: 50 mg/kg max", "procedure": "Animals. C57BL6 mice were obtained from the Jackson Laboratories.\nInjection material and stereotaxic injections. Purification of recombinant α-synuclein proteins and in vitro fibril assembly was performed as previously described (K. C. Luk et al., Intracerebral inoculation of pathological α-synuclein initiates a rapidly progressive neurodegenerative α-synucleinopathy in mice. J. Exp. Med. 209, 975 (2012)) from full-length wildtype mouse α-synuclein (5 mg/mL). Assembly reactions were agitated in an Eppendorf orbital mixer (1,000 rpm at 37° C.) and α-synuclein pre-formed fibrils (PFFs) harvested after 5 d. Preparations were diluted in sterile PBS and sonicated briefly with a hand-held probe sonicator (Fisher Scientific Model 120) prior to injection. Mice between 2 and 3 months of age were anesthetized with ketamine hydrochloride (100 mg/kg, i.p.) and xylazine (10 mg/kg, i.p.) and stereotaxically injected in one hemisphere of the striatum with PFFs (5 μg). Control animals received sterile PBS. To target the striatum, a single needle insertion (co-ordinates: +1.0 mm relative to Bregma, +2.0 mm from midline) into the right forebrain was used (+2.6 mm beneath the dura). Injections were performed using a motorized injector at a rate of 0.2 μL per min (2.5 μL total per site) with the needle in place for >5 min at each target. Animals were monitored regularly following recovery from surgery. Starting 7 days after surgery, a daily oral dose of EP-0035985 or vehicle control was administered, continuing for the duration of the study. The animals were sacrificed at 30 days post injection by overdose with isofluorane, and their brains removed following transcardial perfusion with PBS. Brains were sectioned into striatum and ventral midbrain sections, and immediately frozen and stored at −80° C. until used.\nBiochemical analysis. Dissected brain regions of interest were extracted as in Yun, P. S., et al Nat Med. 2018 July; 24(7):931-938. Briefly, sections were homogenized in brain lysis buffer containing 10 mM Tris-HCl, pH 7.4, 150 mM NaCl, 5 mM EDTA, 0.5% IGEPAL® CA-630 (Nonidet P-40), 1× Halt™ Protease and Phosphatase Inhibitor Cocktail. 0.2 mL of buffer was used per tissue section. Samples were homogenized using a mortar pestle and then 0.3 mL brain lysis buffer was added before clearing at 300×g for 3 minutes at 4° C. Supernatant was then transferred to a new tube and cleared at 22,000×g for 20 min at 4° C. The supernatant should be transferred and the pellet washed with 0.3 mL brain lysis buffer before repeating the clearing step. Subsequent to this the pellet should be further homogenized (sonicating for 20 s at 20% amplitude on ice) in 0.2 mL per sample SDS-Brain lysis buffer containing 10 mM Tris-HCl, pH 7.4, 150 mM NaCl, 5 mM EDTA, 0.5% Nonidet P-40, 1% SDS, 0.5% sodium deoxycholate. Protein concentrations were determined using the BCA assay (Pierce) and samples (10 μg total protein) were separated on SDS-polyacrylamide gels (4-20% gradient) and transferred onto nitrocellulose membranes. Blots were blocked in 5% BSA in TBST and probed using various primary antibodies. Target antigens were detected using an Odyssey FC scanner (LiCor) following incubation with the appropriate infrared secondary antibodies."}}, "note": "Where two headings read alike, the source gives them in different places."}
{"molecule": "FC(F)(F)c1cc2c(NC3CCCc4ccccc43)ncnc2[nH]1", "note": "(stereo not shown) [Compound 15]", "values": [{"measurement": "solubility", "setting": "[1]", "result": 1, "unit": "µM"}, {"measurement": "concentration at 0.5 h", "setting": "[2]; brain, dose 10 mg/kg, read-out: Brain 0.5 h", "result": 526, "unit": "ng/g"}, {"measurement": "concentration at 1 h", "setting": "[2]; brain, dose 10 mg/kg, read-out: Brain 1 h", "result": 737, "unit": "ng/g"}, {"measurement": "concentration at 2 h", "setting": "[2]; brain, dose 10 mg/kg, read-out: Brain 2 h", "result": 435, "unit": "ng/g"}, {"measurement": "concentration at 0.5 h", "setting": "[2]; brain, dose 50 mg/kg, read-out: Brain 0.5 h", "result": 3340, "unit": "ng/g"}, {"measurement": "concentration at 1 h", "setting": "[2]; brain, dose 50 mg/kg, read-out: Brain 1 h", "result": 6370, "unit": "ng/g"}, {"measurement": "concentration at 2 h", "setting": "[2]; brain, dose 50 mg/kg, read-out: Brain 2 h", "result": 3980, "unit": "ng/g"}, {"measurement": "concentration at 0.5 h", "setting": "[2]; kidney, dose 10 mg/kg, read-out: Kidney 0.5", "result": 1050, "unit": "ng/g"}, {"measurement": "concentration at 1 h", "setting": "[2]; kidney, dose 10 mg/kg, read-out: Kidney 1", "result": 1290, "unit": "ng/g"}, {"measurement": "concentration at 2 h", "setting": "[2]; kidney, dose 10 mg/kg, read-out: Kidney 2", "result": 893, "unit": "ng/g"}, {"measurement": "concentration at 0.5 h", "setting": "[2]; kidney, dose 50 mg/kg, read-out: Kidney 0.5", "result": 6430, "unit": "ng/g"}, {"measurement": "concentration at 1 h", "setting": "[2]; kidney, dose 50 mg/kg, read-out: Kidney 1", "result": 11500, "unit": "ng/g"}, {"measurement": "concentration at 2 h", "setting": "[2]; kidney, dose 50 mg/kg, read-out: Kidney 2", "result": 7480, "unit": "ng/g"}, {"measurement": "concentration at 0.5 h", "setting": "[2]; plasma, dose 10 mg/kg, read-out: Plasma 0.5 h", "result": 372, "unit": "ng/g"}, {"measurement": "concentration at 1 h", "setting": "[2]; plasma, dose 10 mg/kg, read-out: Plasma 1 h", "result": 276, "unit": "ng/g"}, {"measurement": "concentration at 2 h", "setting": "[2]; plasma, dose 10 mg/kg, read-out: Plasma 2 h", "result": 146, "unit": "ng/g"}, {"measurement": "concentration at 0.5 h", "setting": "[2]; plasma, dose 50 mg/kg, read-out: Plasma 0.5 h", "result": 1900, "unit": "ng/g"}, {"measurement": "concentration at 1 h", "setting": "[2]; plasma, dose 50 mg/kg, read-out: Plasma 1 h", "result": 2080, "unit": "ng/g"}, {"measurement": "concentration at 2 h", "setting": "[2]; plasma, dose 50 mg/kg, read-out: Plasma 2 h", "result": 1420, "unit": "ng/g"}, {"measurement": "all analyzed species of α-synuclein", "setting": "[3]; contralateral striatum, FIG. 30", "result": "drives a decrease in all analyzed species of α-synuclein at 50 mg/kg max"}, {"measurement": "all analyzed species of α-synuclein", "setting": "[3]; ipsilateral striatum, FIG. 29", "result": "drives a decrease in all analyzed species of α-synuclein at 50 mg/kg max"}, {"measurement": "c-terminal truncation of α-synuclein (14 kDA)", "setting": "[3]; ipsilateral striatum, FIG. 26", "result": "drives a decrease in c-terminal truncation of α-synuclein (14 kDA)"}, {"measurement": "pS129 monomer of α-synuclein", "setting": "[3]; ipsilateral striatum, FIG. 27", "result": "drives a decrease in pS129 monomer of α-synuclein"}, {"measurement": "total monomer of α-synuclein", "setting": "[3]; ipsilateral striatum, FIG. 28", "result": "drives a decrease in total monomer of α-synuclein"}, {"measurement": "all analyzed species of α-synuclein", "setting": "[3]; ventral midbrain, FIG. 31", "result": "drives a decrease in all analyzed species of α-synuclein at 50 mg/kg max"}]}
